Test results as given in patent US4740233A, “Substituted 1,2,4-triazolo[1,5-a]-pyrimidine-2-sulfonamides and compositions and methods of controlling undesired vegetation and suppressing the nitrification of ammonium nitrogen in soil” (The Dow Chemical Company, priority 1986, dated 1988).

Key:
cotton [1] = experiment: Postemergent control of plant species; type: in vivo, Gossypium spp.; conditions: Gossypium hirsutum, post-emergence, 336 h, read-out: percent postemergent control
Method in brief: (§1)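 Growth reduction versus untreated plants of each species, scored about two weeks after spraying, defines control here. Test emulsions contained compound in acetone diluted 1:1 into water bearing 0.1% surfactant; plants were treated at the 2-4 leaf stage in the greenhouse.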

rape [2] = experiment: Postemergent control of plant species; type: in vivo, Brassica napus; conditions: Brassica napus, post-emergence, 336 h, read-out: percent postemergent control
Method in brief: as §1

soybean [3] = experiment: Postemergent control of plant species; type: in vivo, Glycine max.; conditions: Glycine max, post-emergence, 336 h, read-out: percent postemergent control
Method in brief: as §1

sugar beet [4] = experiment: Postemergent control of plant species; type: in vivo, Beta saccharifera; conditions: Beta vulgaris, post-emergence, 336 h, read-out: percent postemergent control
Method in brief: as §1

cocklebur = experiment: Postemergent control of plant species; type: in vivo, Xanthium spp.; conditions: Xanthium strumarium, post-emergence, 336 h, read-out: percent postemergent control
Procedure: In representative operations, each compound to be utilized in a series of tests is dissolved in acetone to one-half of the final volume (twice the final concentration) to be used and the acetone solution in each case is admixed with an equal volume of water containing 0.1 percent by weight of surface active material. The compositions, generally in the nature of an emulsion, were employed to spray separate respective plant species which had been grown to a 2-4 leaf stage in soil of good nutrient content in a greenhouse. The various beds were positioned side by side and exposed to substantially identical conditions of temperature and light. Each bed was maintained so as to prevent any interaction with test compounds in different seed beds. Other plants were left untreated to serve as controls. After treatment, the plants were maintained for about two weeks under greenhouse conditions conducive for good plant growth and watered as necessary. Control refers to the reduction in growth compared to the observed results of the same untreated species.

jimsonweed [5] = experiment: Postemergent control of plant species; type: in vivo, Datura stramonium; conditions: Datura stramonium, post-emergence, 336 h, read-out: percent postemergent control
Method in brief: as §1

annual morning glory [6] = experiment: Postemergent control of plant species; type: in vivo, Ipomoea spp.; conditions: Ipomoea, post-emergence, 336 h, read-out: percent postemergent control
Method in brief: as §1

pigweed = experiment: Postemergent control of plant species; type: in vivo, Amaranthus spp.; conditions: Amaranthus retroflexus, post-emergence, 336 h, read-out: percent postemergent control
Method in brief: as §1

velvetleaf [7] = experiment: Postemergent control of plant species; type: in vivo, Abutilon theophrasti; conditions: Abutilon theophrasti, post-emergence, 336 h, read-out: percent postemergent control
Method in brief: as §1

corn [8] = experiment: Postemergent control of plant species; type: in vivo, Zea mays; conditions: Zea mays, post-emergence, 336 h, read-out: percent postemergent control
Method in brief: as §1

rice [9] = experiment: Postemergent control of plant species; type: in vivo, Oryza sativa; conditions: Oryza sativa, post-emergence, 336 h, read-out: percent postemergent control
Method in brief: as §1

sorghum [10] = experiment: Postemergent control of plant species; type: in vivo, Sorghum vulgare; conditions: Sorghum, post-emergence, 336 h, read-out: percent postemergent control
Method in brief: as §1

wheat [11] = experiment: Postemergent control of plant species; type: in vivo, Triticum aestivum; conditions: Triticum aestivum, post-emergence, 336 h, read-out: percent postemergent control
Method in brief: as §1

barnyardgrass [12] = experiment: Postemergent control of plant species; type: in vivo, Echinochloa crusgalli; conditions: Echinochloa crus-galli, post-emergence, 336 h, read-out: percent postemergent control
Method in brief: as §1

crabgrass = experiment: Postemergent control of plant species; type: in vivo, Digitaria spp.; conditions: Digitaria sanguinalis, post-emergence, 336 h, read-out: percent postemergent control
Method in brief: as §1

yellow foxtail [13] = experiment: Postemergent control of plant species; type: in vivo, Setaria lutescens; conditions: Setaria, post-emergence, 336 h, read-out: percent postemergent control
Method in brief: as §1

johnson grass [14] = experiment: Postemergent control of plant species; type: in vivo, Sorghum halepense; conditions: Sorghum halepense, post-emergence, 336 h, read-out: percent postemergent control
Method in brief: as §1

yellow nutsedge [15] = experiment: Postemergent control of plant species; type: in vivo, Cyperus esculentus; conditions: Cyperus, post-emergence, 336 h, read-out: percent postemergent control
Method in brief: as §1

cotton [16] = experiment: Preemergent control of plant species; type: in vivo, Gossypium spp.; conditions: Gossypium hirsutum, pre-emergence, 336 h; 0.25 lb/acre; read-out: percent preemergent control
Method in brief: (§2)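 Seeds planted in good agricultural soil beds; active ingredients then applied to the bed surface as aqueous emulsion at listed rates. Beds kept two weeks in greenhouse with watering. Control scored against water-treated beds.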

rape [17] = experiment: Preemergent control of plant species; type: in vivo, Brassica napus; conditions: Brassica napus, pre-emergence, 336 h; 0.25 lb/acre; read-out: percent preemergent control
Method in brief: as §2

soybean [18] = experiment: Preemergent control of plant species; type: in vivo, Glycine max.; conditions: Glycine max, pre-emergence, 336 h; 0.25 lb/acre; read-out: percent preemergent control
Method in brief: as §2

sugar beet [19] = experiment: Preemergent control of plant species; type: in vivo, Beta saccharifera; conditions: Beta vulgaris, pre-emergence, 336 h; 0.25 lb/acre; read-out: percent preemergent control
Method in brief: as §2

jimsonweed [20] = experiment: Preemergent control of plant species; type: in vivo, Datura stramonium; conditions: Datura stramonium, pre-emergence, 336 h; 0.25 lb/acre; read-out: percent preemergent control
Method in brief: as §2

annual morning glory [21] = experiment: Preemergent control of plant species; type: in vivo, Ipomoea spp.; conditions: Ipomoea, pre-emergence, 336 h; 0.25 lb/acre; read-out: percent preemergent control
Method in brief: as §2

velvetleaf [22] = experiment: Preemergent control of plant species; type: in vivo, Abutilon theophrasti; conditions: Abutilon theophrasti, pre-emergence, 336 h; 0.25 lb/acre; read-out: percent preemergent control
Method in brief: as §2

corn [23] = experiment: Preemergent control of plant species; type: in vivo, Zea mays; conditions: Zea mays, pre-emergence, 336 h; 0.25 lb/acre; read-out: percent preemergent control
Method in brief: as §2

rice [24] = experiment: Preemergent control of plant species; type: in vivo, Oryza sativa; conditions: Oryza sativa, pre-emergence, 336 h; 0.25 lb/acre; read-out: percent preemergent control
Method in brief: as §2

sorghum [25] = experiment: Preemergent control of plant species; type: in vivo, Sorghum vulgare; conditions: Sorghum, pre-emergence, 336 h; 0.25 lb/acre; read-out: percent preemergent control
Method in brief: as §2

wheat [26] = experiment: Preemergent control of plant species; type: in vivo, Triticum aestivum; conditions: Triticum aestivum, pre-emergence, 336 h; 0.25 lb/acre; read-out: percent preemergent control
Method in brief: as §2

barnyardgrass [27] = experiment: Preemergent control of plant species; type: in vivo, Echinochloa crusgalli; conditions: Echinochloa crus-galli, pre-emergence, 336 h; 0.25 lb/acre; read-out: percent preemergent control
Method in brief: as §2

johnson grass [28] = experiment: Preemergent control of plant species; type: in vivo, Sorghum halepense; conditions: Sorghum halepense, pre-emergence, 336 h; 0.25 lb/acre; read-out: percent preemergent control
Method in brief: as §2

wild oats [29] = experiment: Preemergent control of plant species; type: in vivo; conditions: Avena fatua, pre-emergence, 336 h; 0.25 lb/acre; read-out: percent preemergent control
Method in brief: as §2

yellow foxtail [30] = experiment: Preemergent control of plant species; type: in vivo, Setaria lutescens; conditions: Setaria, pre-emergence, 336 h; 0.25 lb/acre; read-out: percent preemergent control
Method in brief: as §2

yellow nutsedge [31] = experiment: Preemergent control of plant species; type: in vivo, Cyperus esculentus; conditions: Cyperus, pre-emergence, 336 h; 0.25 lb/acre; read-out: percent preemergent control
Method in brief: as §2

wild oats [32] = experiment: Postemergent control of plant species; type: in vivo, Avena fatua; conditions: Avena fatua, post-emergence, 336 h, read-out: percent postemergent control
Method in brief: as §1

SMILES | plant injury at 500 ppm (cotton [1]) [%] | plant injury at 500 ppm (rape [2]) [%] | plant injury at 500 ppm (soybean [3]) [%] | plant injury at 500 ppm (sugar beet [4]) [%] | pest or weed control at 500 ppm (cocklebur) [%] | pest or weed control at 500 ppm (jimsonweed [5]) [%] | pest or weed control at 500 ppm (annual morning glory [6]) [%] | pest or weed control at 500 ppm (pigweed) [%] | pest or weed control at 500 ppm (velvetleaf [7]) [%] | plant injury at 500 ppm (corn [8]) [%] | plant injury at 500 ppm (rice [9]) [%] | plant injury at 500 ppm (sorghum [10]) [%] | plant injury at 500 ppm (wheat [11]) [%] | pest or weed control at 500 ppm (barnyardgrass [12]) [%] | pest or weed control at 500 ppm (crabgrass) [%] | pest or weed control at 500 ppm (yellow foxtail [13]) [%] | pest or weed control at 500 ppm (johnson grass [14]) [%] | pest or weed control at 500 ppm (yellow nutsedge [15]) [%] | plant injury at 280.212 g/ha (cotton [16]) [%] | pest or weed control at 500 ppm (wild oats [32]) [%] | further results
Cc1ccn2nc(S(=O)(=O)N(c3c(F)cccc3F)S(=O)(=O)c3ccccc3)nc2n1 [Compound 298] | 35 | 85 | 0 | 80 | 50 | 50 | 50 | 100 | 80 | 0 | 40 | 40 | 0 | 65 | 25 | 75 | 50 | 0 | 100 | – | plant injury at 280.212 g/ha (rape [17]): 100%; plant injury at 280.212 g/ha (soybean [18]): 0%; plant injury at 280.212 g/ha (sugar beet [19]): 100%; pest or weed control at 280.212 g/ha (jimsonweed [20]): 100%; pest or weed control at 280.212 g/ha (annual morning glory [21]): 70%; pest or weed control at 280.212 g/ha (velvetleaf [22]): 100%; plant injury at 280.212 g/ha (corn [23]): 40%; plant injury at 280.212 g/ha (rice [24]): 95%; plant injury at 280.212 g/ha (sorghum [25]): 95%; plant injury at 280.212 g/ha (wheat [26]): 50%; pest or weed control at 280.212 g/ha (barnyardgrass [27]): 100%; pest or weed control at 280.212 g/ha (johnson grass [28]): 95%; pest or weed control at 280.212 g/ha (wild oats [29]): 50%; pest or weed control at 280.212 g/ha (yellow foxtail [30]): 100%; pest or weed control at 280.212 g/ha (yellow nutsedge [31]): 100%
Cc1nc2nc(S(=O)(=O)Nc3ccccc3[N+](=O)[O-])nn2c2c1CCC2 [Compound 105] | 35 | 40 | 95 | 90 | 100 | 60 | 70 | 60 | 0 | 80 | 20 | 0 | 0 | 20 | 0 | – | 0 | 0 | – | 0 | –
COc1ccc(Cl)c(NS(=O)(=O)c2nc3nc(C)ccn3n2)c1Cl [Compound 170] | 50 | – | 30 | 95 | 25 | 90 | 70 | 100 | 90 | 25 | 35 | 25 | 0 | 75 | 60 | 80 | 85 | 98 | 70 | 80 | plant injury at 280.212 g/ha (rape [17]): 100%; plant injury at 280.212 g/ha (soybean [18]): 0%; plant injury at 280.212 g/ha (sugar beet [19]): 90%; pest or weed control at 280.212 g/ha (jimsonweed [20]): 0%; pest or weed control at 280.212 g/ha (annual morning glory [21]): 30%; pest or weed control at 280.212 g/ha (velvetleaf [22]): 85%; plant injury at 280.212 g/ha (corn [23]): 20%; plant injury at 280.212 g/ha (rice [24]): 30%; plant injury at 280.212 g/ha (sorghum [25]): 80%; plant injury at 280.212 g/ha (wheat [26]): 10%; pest or weed control at 280.212 g/ha (barnyardgrass [27]): 40%; pest or weed control at 280.212 g/ha (johnson grass [28]): 90%; pest or weed control at 280.212 g/ha (yellow foxtail [30]): 70%; pest or weed control at 280.212 g/ha (yellow nutsedge [31]): 0%
Cc1cc(C)n2nc(S(=O)(=O)Nc3c(F)c(F)cc(F)c3F)nc2n1 [Compound 90] | 0 | 70 | 50 | – | 75 | 70 | 30 | 100 | 50 | 0 | 0 | 0 | 0 | 0 | – | 70 | 20 | 0 | – | 0 | –
